The record followed here is the NIST ThermoML archive (doi:10.1016/j.jct.2014.01.025).

The conditions of the data set: Liquid; for Critical pressure: Direct measurement; for Critical temperature: Visual observation in an unstirred cell.

SMILES strings stand for the structures. Numbers after ± are expanded uncertainties.

Regarding `CCO` [ethanol], the Critical pressure came out at 6135 ± 31 kPa and the Critical temperature is listed as 514.2 ± 2.4 K.

For `CCCO` [propan-1-ol], the Critical pressure amounted to 5172 ± 31 kPa and the Critical temperature turned out to be 537 ± 2.4 K.

`CCCCCCC` [heptane]: the Critical pressure was found to be 2761 ± 31 kPa and the Critical temperature stood at 540 ± 2.4 K.

As to `CO` [methanol], the Critical pressure is 8128 ± 31 kPa and the Critical temperature was 512.3 ± 2.4 K.
